Results on four compounds are retold here after PMC4331664, “Allosteric regulation of the partitioning of glucose-1-phosphate between glycogen and trehalose biosynthesis in Mycobacterium tuberculosis” (Biochimica et Biophysica Acta. General Subjects, 2015).

The target in data set [1] is T1, ADP-Glc PPase (ADP-glucose pyrophosphorylase) (Mycobacterium tuberculosis, UniProt P9WN43).
T1 construct: gene glgC

In data set [2] the target is T2, Tre-6P Sase (trehalose-6-phosphate synthase) (Mycobacterium tuberculosis, UniProt P9WN11).
T2 construct: gene otsA
The conditions noted are these: read-out: A0.5.

The target of data set [3] is T1, ADP-Glc PPase (ADP-glucose pyrophosphorylase). The conditions noted are these: read-out: A0.5.
Data set [4] has the same target. Nature of the data set: biochemical.
Data set [5] deals with Nc1ncnc2c1ncn2[C@@H]1O[C@H](COP(=O)(O)OP(=O)(O)O[C@H]2O[C@H](CO)[C@@H](O)[C@H](O)[C@H]2O)[C@@H](O)[C@H]1O. Nature of the data set: purified protein. The conditions noted are these: pH 8.0.

Read-outs that look alike come from different tables or passages of the source.

T1 sequence (P9WN43 whole entry): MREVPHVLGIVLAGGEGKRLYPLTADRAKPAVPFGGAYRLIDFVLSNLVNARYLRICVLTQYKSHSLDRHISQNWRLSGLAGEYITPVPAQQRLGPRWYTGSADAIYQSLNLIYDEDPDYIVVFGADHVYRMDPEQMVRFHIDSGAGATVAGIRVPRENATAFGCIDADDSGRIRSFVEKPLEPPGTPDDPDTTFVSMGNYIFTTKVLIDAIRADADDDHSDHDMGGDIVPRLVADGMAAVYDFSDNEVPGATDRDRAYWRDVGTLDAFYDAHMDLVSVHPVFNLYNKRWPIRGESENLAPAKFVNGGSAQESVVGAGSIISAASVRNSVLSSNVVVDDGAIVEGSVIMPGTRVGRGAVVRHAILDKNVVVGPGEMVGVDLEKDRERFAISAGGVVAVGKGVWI
T2 sequence (P9WN11 whole entry): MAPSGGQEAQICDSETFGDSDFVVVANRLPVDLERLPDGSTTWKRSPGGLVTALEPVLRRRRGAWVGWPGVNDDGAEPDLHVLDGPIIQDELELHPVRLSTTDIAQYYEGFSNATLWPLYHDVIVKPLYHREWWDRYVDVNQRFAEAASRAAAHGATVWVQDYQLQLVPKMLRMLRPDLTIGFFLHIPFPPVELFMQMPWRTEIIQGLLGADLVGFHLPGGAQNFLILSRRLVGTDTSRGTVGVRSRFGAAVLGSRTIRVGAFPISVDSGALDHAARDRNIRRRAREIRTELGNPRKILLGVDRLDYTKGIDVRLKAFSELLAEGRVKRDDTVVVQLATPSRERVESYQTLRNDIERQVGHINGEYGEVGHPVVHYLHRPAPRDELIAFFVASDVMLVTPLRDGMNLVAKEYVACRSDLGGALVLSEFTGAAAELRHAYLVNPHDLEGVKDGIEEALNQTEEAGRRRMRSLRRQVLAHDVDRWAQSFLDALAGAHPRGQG

For `O=P(O)(O)OC[C@H]1OC(O)(CO)[C@@H](O)[C@@H]1O` (stereo partly drawn) [Fru-6P], the “fold activation at 5 mM” value in data set [1] amounted to 1.3 fold. In addition, the EC50 in data set [2] is 330 µM.
For `O=P(O)(O)OC[C@H]1OC(O)[C@H](O)[C@@H](O)[C@@H]1O` (stereo partly drawn) [Glc-6P], in data set [3], the EC50 amounted to 870 µM.
In data set [4], `C=C(OP(=O)(O)O)C(=O)O` [PEP] displayed an EC50 of 90 µM.
As for “GSase (glycogen synthase) (Mycobacterium tuberculosis H37Rv)”, in data set [5], the K0.5 turned out to be 3.95 ± 0.12 mM and the Vmax (commonly the top rate of the reaction or transport when substrate is in excess) came to 0.21 µmol/min/mg.
